Measurements published in the NIST ThermoML archive (doi:10.1021/je900874z).
Numbers after ± are expanded uncertainties.

How the values were obtained:
[1] = 101.33 kPa, Liquid; for speed of sound: Pulse-echo method
[2] = xn = mol fraction of the nth substance listed; conditions: 101 kPa, Liquid

CNc1ccccc1 [N-methylaniline] gave a mass density ([1]; 293.15 K) of 986.077 ± 0.93 kg/m3, a speed of sound ([1]; 293.15 K) of 1582.3 ± 2.1 m/s and a mass density ([1]; 298.15 K) of 982.066 ± 0.93 kg/m3. The speed of sound ([1]; 298.15 K) was 1564.4 ± 2.1 m/s, the mass density ([1]; 303.15 K) was 978.011 ± 0.93 kg/m3 and the speed of sound ([1]; 303.15 K) was 1545.5 ± 2.1 m/s.
CNc1ccccc1 [N-methylaniline] + CC(C)=O gave a mass density ([2]; 293.15 K, x2 = 0.0565) of 979.562 ± 0.86 kg/m3, a mass density ([2]; 293.15 K, x2 = 0.1032) of 973.934 ± 0.81 kg/m3 and a mass density ([2]; 293.15 K, x2 = 0.1494) of 968.145 ± 0.77 kg/m3. For the same compound, the mass density ([2]; 293.15 K, x2 = 0.1916) was 962.605 ± 0.73 kg/m3, the mass density ([2]; 293.15 K, x2 = 0.251) was 954.413 ± 0.68 kg/m3 and the mass density ([2]; 293.15 K, x2 = 0.2952) was 948.053 ± 0.64 kg/m3. For the same compound, the mass density ([2]; 293.15 K, x2 = 0.3555) was 938.912 ± 0.6 kg/m3, the mass density ([2]; 293.15 K, x2 = 0.4039) was 931.04 ± 0.57 kg/m3 and the mass density ([2]; 293.15 K, x2 = 0.4478) was 923.576 ± 0.54 kg/m3. It also gave a mass density ([2]; 293.15 K, x2 = 0.4981) of 914.659 ± 0.52 kg/m3, a mass density ([2]; 293.15 K, x2 = 0.5489) of 905.091 ± 0.5 kg/m3 and a mass density ([2]; 293.15 K, x2 = 0.5965) of 895.722 ± 0.48 kg/m3. It also gave a mass density ([2]; 293.15 K, x2 = 0.6485) of 884.852 ± 0.47 kg/m3, a mass density ([2]; 293.15 K, x2 = 0.7018) of 873.046 ± 0.46 kg/m3 and a mass density ([2]; 293.15 K, x2 = 0.7472) of 862.27 ± 0.46 kg/m3. The mass density ([2]; 293.15 K, x2 = 0.802) was 848.69 ± 0.45 kg/m3, the mass density ([2]; 293.15 K, x2 = 0.8563) was 834.277 ± 0.46 kg/m3 and the mass density ([2]; 293.15 K, x2 = 0.9053) was 820.343 ± 0.46 kg/m3. For the same compound, the mass density ([2]; 293.15 K, x2 = 0.9548) was 805.391 ± 0.47 kg/m3, the mass density ([2]; 298.15 K, x2 = 0.044) was 977.005 ± 0.88 kg/m3 and the mass density ([2]; 298.15 K, x2 = 0.0984) was 970.455 ± 0.82 kg/m3. The mass density ([2]; 298.15 K, x2 = 0.1447) was 964.607 ± 0.77 kg/m3, the mass density ([2]; 298.15 K, x2 = 0.1996) was 957.353 ± 0.72 kg/m3 and the mass density ([2]; 298.15 K, x2 = 0.2503) was 950.29 ± 0.68 kg/m3. It also gave a mass density ([2]; 298.15 K, x2 = 0.2919) of 944.327 ± 0.65 kg/m3, a mass density ([2]; 298.15 K, x2 = 0.3511) of 935.283 ± 0.6 kg/m3 and a mass density ([2]; 298.15 K, x2 = 0.3924) of 928.532 ± 0.58 kg/m3. It also gave a mass density ([2]; 298.15 K, x2 = 0.452) of 918.415 ± 0.55 kg/m3, a mass density ([2]; 298.15 K, x2 = 0.4948) of 910.794 ± 0.53 kg/m3 and a mass density ([2]; 298.15 K, x2 = 0.5563) of 899.086 ± 0.5 kg/m3. For the same compound, the mass density ([2]; 298.15 K, x2 = 0.6004) was 890.231 ± 0.49 kg/m3, the mass density ([2]; 298.15 K, x2 = 0.6473) was 880.387 ± 0.48 kg/m3 and the mass density ([2]; 298.15 K, x2 = 0.6962) was 869.434 ± 0.47 kg/m3. The mass density ([2]; 298.15 K, x2 = 0.7506) was 856.501 ± 0.46 kg/m3, the mass density ([2]; 298.15 K, x2 = 0.8009) was 843.758 ± 0.46 kg/m3 and the mass density ([2]; 298.15 K, x2 = 0.8518) was 830.205 ± 0.46 kg/m3. The mass density ([2]; 298.15 K, x2 = 0.8986) was 816.915 ± 0.47 kg/m3, the mass density ([2]; 298.15 K, x2 = 0.9488) was 801.799 ± 0.48 kg/m3 and the mass density ([2]; 303.15 K, x2 = 0.0461) was 972.638 ± 0.88 kg/m3. It also gave a mass density ([2]; 303.15 K, x2 = 0.0934) of 966.889 ± 0.83 kg/m3, a mass density ([2]; 303.15 K, x2 = 0.1524) of 959.343 ± 0.77 kg/m3 and a mass density ([2]; 303.15 K, x2 = 0.1937) of 953.815 ± 0.73 kg/m3. It also gave a mass density ([2]; 303.15 K, x2 = 0.2442) of 946.596 ± 0.69 kg/m3, a mass density ([2]; 303.15 K, x2 = 0.3357) of 933.026 ± 0.62 kg/m3 and a mass density ([2]; 303.15 K, x2 = 0.3991) of 922.737 ± 0.58 kg/m3. It also gave a mass density ([2]; 303.15 K, x2 = 0.4904) of 906.677 ± 0.53 kg/m3, a mass density ([2]; 303.15 K, x2 = 0.5507) of 895.228 ± 0.51 kg/m3 and a mass density ([2]; 303.15 K, x2 = 0.5949) of 886.274 ± 0.49 kg/m3. It also gave a mass density ([2]; 303.15 K, x2 = 0.6467) of 875.21 ± 0.48 kg/m3, a mass density ([2]; 303.15 K, x2 = 0.6928) of 864.807 ± 0.47 kg/m3 and a mass density ([2]; 303.15 K, x2 = 0.7424) of 852.961 ± 0.47 kg/m3. The mass density ([2]; 303.15 K, x2 = 0.7993) was 838.524 ± 0.47 kg/m3, the mass density ([2]; 303.15 K, x2 = 0.8469) was 825.646 ± 0.47 kg/m3 and the mass density ([2]; 303.15 K, x2 = 0.8977) was 811.117 ± 0.48 kg/m3. For the same compound, the mass density ([2]; 303.15 K, x2 = 0.9484) was 795.598 ± 0.49 kg/m3.
CC(C)=O [acetone] gave a mass density ([1]; 293.15 K) of 790.694 ± 0.49 kg/m3, a speed of sound ([1]; 293.15 K) of 1182.8 ± 0.8 m/s and a mass density ([1]; 298.15 K) of 785.32 ± 0.5 kg/m3. For the same compound, the speed of sound ([1]; 298.15 K) was 1160.7 ± 0.8 m/s, the mass density ([1]; 303.15 K) was 778.812 ± 0.51 kg/m3 and the speed of sound ([1]; 303.15 K) was 1138.7 ± 0.8 m/s.
Compound Nc1ccccc1 [aniline] has a mass density ([1]; 293.15 K) of 1021.7 ± 0.21 kg/m3, a speed of sound ([1]; 293.15 K) of 1657 ± 0.9 m/s and a mass density ([1]; 298.15 K) of 1017.41 ± 0.2 kg/m3. It also gave a speed of sound ([1]; 298.15 K) of 1638.6 ± 0.9 m/s, a mass density ([1]; 303.15 K) of 1013.04 ± 0.2 kg/m3 and a speed of sound ([1]; 303.15 K) of 1619.2 ± 0.9 m/s.
